Columns and labels:
recombinant human CETP [1] = biological target: T1, recombinant human CETP (Homo sapiens, UniProt P11597); conditions: in vivo
[2] = parameters: species or system New Zealand White Rabbits; conditions: rabbit, in vivo
recombinant human CETP [3] = biological target: T1, recombinant human CETP; conditions: in vivo; remark: listed apart in the source
[4] = system: aortic atherosclerotic lesions; assay: Measurement of aortic atherosclerotic lesions in rabbits, cholesterol-fed model of atherosclerosis; format: in vivo, New Zealand White Rabbits
Protocol: The synthetic vaccine peptide (SEQ ID NO:2) of Example 1 above was injected into New Zealand White Rabbits to test the ability of the vaccine peptide to elicit an immune response against endogenous rabbit CETP and to protect or reduce development of atherosclerosis. Group I contained six rabbits (rb#1-#6), each of which was subjected to a protocol for administration of the vaccine peptide. Control Group II contained six rabbits (rb#7-12) that were vaccinated but not fed a high cholesterol diet. Control Group III contained six rabbits (rb#13-18) that were not vaccinated and not fed a high cholesterol diet. Control Group IV contained six rabbits (rb#19-24) that were not vaccinated but fed a high cholesterol diet. The high cholesterol diet was administered starting four weeks after a final boost with the vaccine and continued for a total of 17 weeks.
On Day 0, peptide (100 μg) was suspended in the RIBI™ adjuvant system (RIBI ImmunoChem Research, Inc., Hamilton, Mont.) according to manufacturer's instructions to a final volume of […], and each rabbit of Group I and II were injected at two intramuscular sites (250 μl per site), subcutaneously at two sites (100 μl per site), and six intradermal sites (50 μl per site). On Day 28, a boost (100 μg of peptide in RIBI™ adjuvant system) was administered as on Day 0. On Day 49, another boost (100 μg of peptide in RIBI™ adjuvant system) was administered as on Day 0. […]
Aortas were removed from all surviving rabbits (four in Groups I and IV, five in Group II, six in Group III) after 17 weeks (Day 196 from primary vaccination) on cholesterol supplemented diet in Groups I and IV and control diet (no cholesterol supplement) in Groups II and III. […] The lesions were measured and the data quantitated using a computer program (The Morphometer, Woods Hole Educational Associated, Woods Hole, Mass.).

recombinant human CETP [5] = biological target: T1, recombinant human CETP; conditions: in vivo; remark: listed apart in the source
[6] = parameters: species or system New Zealand White Rabbits; conditions: rabbit, in vivo; remark: listed apart in the source

T1 sequence (P11597 18-493): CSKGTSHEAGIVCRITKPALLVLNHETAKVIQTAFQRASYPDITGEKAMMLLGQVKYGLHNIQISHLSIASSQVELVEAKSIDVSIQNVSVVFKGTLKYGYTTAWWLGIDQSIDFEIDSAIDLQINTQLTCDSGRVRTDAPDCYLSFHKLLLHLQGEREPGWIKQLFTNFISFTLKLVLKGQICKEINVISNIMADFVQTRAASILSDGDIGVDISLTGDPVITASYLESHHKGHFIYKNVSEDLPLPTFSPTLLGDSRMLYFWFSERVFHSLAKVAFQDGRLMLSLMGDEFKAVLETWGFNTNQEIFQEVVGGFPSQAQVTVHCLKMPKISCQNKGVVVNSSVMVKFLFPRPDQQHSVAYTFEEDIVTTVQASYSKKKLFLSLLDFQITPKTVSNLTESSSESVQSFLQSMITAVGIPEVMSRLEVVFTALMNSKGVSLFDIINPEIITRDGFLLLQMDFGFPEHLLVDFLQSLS

## CQYIKANSKFIGITEFGFPEHLLVDFLQSLS [SEQ ID NO:2]
Recombinant human CETP [1]
  inhibition of TP2 binding to CETP by plasma: observed in plasma sample from two of the three rabbits
[2]
  levels of HDL-C compared to pre-vaccination levels: showed an increase
Recombinant human CETP [3]
  titers of anti-CETP antibody by direct ELISA: All Group I mice had significant titers
[4]; Group I (vaccinated, cholesterol-supplemented diet) vs Group IV, 17 weeks on 0.25% cholesterol diet
  size of atherosclerotic lesions compared to non-vaccinated animals: statistically significant reduction
[4]; Group I vaccinated animals, 17 weeks on cholesterol supplemented diet, Oil Red O staining
  average total area of the aorta covered by lesions: 19%
[4]; animals fed cholesterol supplemented diets, vaccinated vs non-vaccinated
  reduction of the area of atherosclerotic lesions: greater than 50%
Recombinant human CETP [5]
  anti-CETP antibody that competed with Mab TP2 for binding to recombinant human CETP: three of the six mice
[6]
  increase in HDL-C concentrations compared to prebleed plasma samples: 2 to 5 fold
  plasma HDL concentrations over time: increasing plasma HDL concentrations over time
  ratio of Non-HDL/HDL: generally declined
  total cholesterol in plasma samples: no significant difference
